This passage reports IC50 and binding rate results from patent publication US20240246968A1, “SMALL MOLECULE INHIBITORS OF KRAS G12C MUTANT” (Merck Sharp & Dohme LLC, priority 2021, published 2024).

SMILES strings stand for the structures.

For one experiment, the system named is MIA PaCa-2 cells. The experiment in a line: Growth inhibition activity on KRAS-G12C mutant cell line (MIA PaCa-2), CellTiter-Glo 3D. It is filed as cell-based, human. The following applies: MIA PaCa-2, 3-day culture with compound. The method, then:
MIA PaCa-2 cells (given by Sumitomo Dainippon Pharma Co., Ltd.), which are a KRAS-G12C mutant human pancreas cancer cell line, were suspended in a 10% fetal bovine serum-containing RPMI1640 medium (manufactured by Fujifilm Wako Pure Chemical Corporation.). The cell suspension was seeded into each well of a 384-well U bottom microplate and cultured in an incubator containing 5% CO2 gas at 37° C. for 1 day. The compounds obtained in the “Preparation of Compounds” section were used as test compounds and were dissolved in DMSO, respectively, and each test compound was diluted with DMSO to give a concentration 500 times the final concentration. The resultant solution of the test compound in DMSO was diluted with the medium used for suspending cells and added to each well of the cell-culture plate to give a DMSO final concentration of 0.2%, followed by culture in an incubator containing 5% CO2 gas at 37° C. for another 3 days. The cell count after 3-day culture in the presence of the test compound was measured using CellTiter-Glo 3D Reagent (manufactured by Promega Corporation). All wells were added with CellTiter-Glo 3D Reagent and mixed for 10 minutes. 30 minutes after mixing, luminescence was measured by a plate reader. The growth inhibition rate was calculated from the following equation, and the concentration of the test compound at which 50/o inhibition was achieved (IC50 (nM)) was determined. The following tables show the results.
[formula] • T: the emission intensity in a well into which a test compound was added. • C: the emission intensity in a well into which a test compound was not added.

Experiment [1] deals with Gppcp-bound recombinant K-Ras4B G12C mutant protein (amino acids 1-169, C51S/C80L/C118S) (Homo sapiens, UniProt P01116, C118S/C51S/C80L/G12C). As to the kind of experiment: KRASG12C binding assay (LC-MS, compound binding rate). The following applies: test compound final concentration 0.5 μM, 25° C., 1 hour. The method, then: As test compounds for the KRASG12C binding assay, the compounds obtained in the “Preparation of Compounds” section were used. Sample solutions each containing a test compound were prepared in the form of a 10 mM DMSO solution.
Gppcp-bound recombinant K-Ras4B G12C mutant protein (amino acids 1-169, C51S/C80L/C118S, SEQ ID NO:1) was diluted with a buffer (1×TBS, 0.1 mM TCEP, 0.25 mM MgCl2, 50 μM Gppcp) to prepare a 50 nM protein solution. K-Ras4B is the major splicing variant of K-Ras. Amino acid sequence of residues 1 to 150 including the compounds' binding region of K-Ras4B is exactly same as that of K-Ras4A, the other splicing variant (Oncotarget. 2016 Jul. 19; 7(29): 46717-46733). A sample solution containing 10 mM test compound was diluted ten-fold with DMSO to make a 1 mM sample solution, and then diluted twenty-fold with DMSO to make a 50 μM sample solution. 1 μL of a 50 μM sample solution was added to 100 μL of a 50 nM protein solution to adjust the final concentration of a test compound to be 0.5 μM in the mixture. The mixtures were stored in an incubator at 25° C. for 1 hour, and 10 μL of a 1×TBS solution containing 2% formic acid was added to stop the reaction, followed by LC-MS measurement. LC-MS measurement was performed using Xevo G2-S Q-Tof manufactured by Waters, and reverse-phase chromatography was performed with a desalting column. A mass spectrum of positive ions was obtained by electrospray. For a mass spectrum, a spectrum of polyvalent ions was collectively converted to a molecular weight by using OpenLynx software by the MaxEnt technique, and a compound binding rate was calculated from the ratio of the signal intensity of a peak that corresponds to the molecular weight of the protein to the signal intensity of a peak that corresponds to the molecular weight of the protein conjugated with the compound.
The binding assay of the test compounds was conducted at a final concentration of 0.5 μM. A binding rate of 80% or more is rated “A”, a binding rate of 60% or more and less than 80% is rated “B”, a binding rate of 40% or more and less than 60% is rated “C”, a binding rate of 20% or more and less than 40% is rated “D”, and a binding rate of less than 20% is rated “E”. N.D.=not determined. Binding rate % is the ratio of KRAS signal intensity at the molecular weight of one molecule adduct to the sum of all the KRAS signal intensity (unbound form and adducts) in mass spectrum. Thus, binding rate 100% means that only the one molecule adduct was observed without any unbound KRAS. The following tables show the results.

Experiment [2] has as its target T1, interaction between recombinant K-Ras4B G12C mutant protein and cRAF RAS-binding domain (cRAF-RBD) (Homo sapiens, UniProt P01116, G12C).
T1 construct: made in house; host or cells: E. coli
The experiment in a line: Inhibitory activity on interaction between KRAS G12C and cRAF (Alpha technology). It is filed as biochemical. As to conditions: GMPPNP-bound KRAS G12C incubated with compound at 25° C. for 1 hour, then cRAF-RBD; Alpha signal. As for the experimental part: Interaction between recombinant K-Ras4B G12C mutant protein (amino acids 1-169, SEQ ID NO:2) and cRAF RAS-binding domain (cRAF-RBD, amino acids 50-132, Jena Biosciences GmbH) was measured using Alpha technology (PerkinElmer Inc.).
Recombinant KRAS G12C protein with an N-terminal His-tag was expressed in E. coli and purified by affinity chromatography. To prepare GTP-bound form and GDP-bound form of KRAS G12C protein. 50 μM KRAS G12C protein was incubated with 1 mM GMPPNP (Guanosine-5′-[(β,γ)-imido]triphosphate. Tetralithium salt)(Jena Bioscience GmbH) and 1 mM GDP, respectively, in a loading buffer (20 mM Tris-HCl (pH 7.5), 50 mM NaCl, 1 mM DTT and 2.5 mM EDTA) for 1 hour on ice. After the incubation, MgCl2 was added to a final concentration of 10 mM, followed by incubation at room temperature for 30 minutes. The mixture was allowed to pass through a NAP-5 column to remove free nucleotides and purified, and the resultant nucleotide-bound KRAS G12C protein was used for compound evaluation.
For the measurement of the inhibitory activity of compounds on interaction between KRAS G12C and cRAF-RBD, GMPPNP-bound KRAS G12C protein was incubated with various concentrations of compound in a reaction buffer (20 mM Tris-HCl (pH 7.5), 100 mM NaCl, 1 mM MgCl2, 1 mM TCEP. 0.1% Tween 20) at 25° C. for 1 hour. After the incubation, recombinant cRAF-RBD and Alpha detection reagents were added and incubated at room temperature for 1.5 hours for binding. Interaction of KRAS G12C and cRAF-RBD was monitored by measuring Alpha signal. Inhibition % was calculated using the signal from the reaction without test compound (DMSO control) as 0% inhibition and the signal from the reaction using GDP-bound KRAS G12C in place of GMPPNP-bound KRAS G12C as 100% inhibition. IC50 values were calculated from dose titration curve using curve fitting by XLfit software (IDBS). The following tables show the results.

With `CCc1nc2c(-c3cc4nc(C)n(C)c4cc3C(F)(F)F)cccn2c1C(=O)c1cc(F)c(NC(=O)/C=C/CN[C@H]2CC[C@H](OC)CC2)c(F)c1` [Example 99, (E)-N-(4-(8-(1,2-dimethyl-6-(trifluoromethyl)-1H-benzo[d]imidazol-5-yl)-2-ethylimidazo[1,2-a]pyridine-3-carbonyl)-2,6-difluorophenyl)-4-(((1r,4r)-4-methoxycyclohexyl)amino)but-2-enamide], the IC50 in the experiment with MIA PaCa-2 cells (Homo sapiens, MIA PaCa-2, 72 h) amounted to 170 nM; in experiment [2] it was 170 nM. Further, in experiment [1], the binding rate entry is “A (A binding rate of 80% or more is rated “A”)”.

Consider `COc1c(-c2cccn3c(C(=O)c4cc(F)c(NC(=O)/C=C/CN[C@H]5CC[C@H](OC)CC5)c(F)c4)ccc23)c(C)cc2c1nc(C)n2C` (single isomer, unassigned) [Example 39-1, (E)-N-(2,6-difluoro-4-(8-(4-methoxy-1,2,6-trimethyl-1H-benzo[d]imidazol-5-yl)indolizine-3-carbonyl)phenyl)-4-(((1r,4r)-4-methoxycyclohexyl)amino)but-2-enamide], for which the figures for the half-inhibitory concentration (IC50) (in the experiment with MIA PaCa-2 cells; in experiment [2]) were 350 nM and 580 nM, respectively. The binding rate entry in experiment [1] is on record as “A (A binding rate of 80% or more is rated “A”)”.

In the case of `COc1c(-c2cccn3c(C(=O)c4cc(F)c(NC(=O)/C=C/CN[C@H]5CC[C@H](OC)CC5)c(F)c4)cnc23)c(C(F)(F)F)cc2c1nc(C)n2C` (single isomer, unassigned) [Example 83-1, (E)-N-(2,6-difluoro-4-(8-(4-methoxy-1,2-dimethyl-6-(trifluoromethyl)-1H-benzo[d]imidazol-5-yl)imidazo[1,2-a]pyridine-3-carbonyl)phenyl)-4-(((1r,4r)-4-methoxycyclohexyl)amino)but-2-enamide], the 50% inhibitory concentration (IC50) (in the experiment with MIA PaCa-2 cells; in experiment [2]) was 16 nM each time. For the same compound, the binding rate result in experiment [1] was “A (A binding rate of 80% or more is rated “A”)”.

Take `Cc1nc2cc(-c3cccn4c(C(=O)c5cc(F)c(NC(=O)/C=C/CNC(C)(C)C)c(F)c5)ccc34)c(C(F)(F)F)cc2n1C` [Example 25, (E)-4-(tert-butylamino)-N-(4-(8-(1,2-dimethyl-6-(trifluoromethyl)-1H-benzo[d]imidazol-5-yl)indolizine-3-carbonyl)-2,6-difluorophenyl)but-2-enamide]: the half-inhibitory concentration (IC50) in the experiment with MIA PaCa-2 cells (Homo sapiens, MIA PaCa-2, 72 h) turned out to be 100 nM; in experiment [2], 79 nM. In experiment [1], the binding rate entry was “A (A binding rate of 80% or more is rated “A”)”.

Turning to `COc1cc(N2CCCC2=O)cc(Cl)c1-c1cccn2c(C(=O)c3cc(F)c(NC(=O)/C=C/CN[C@H]4CC[C@H](OC)CC4)c(F)c3)ccc12` (single isomer, unassigned) [Example 30-2, (E)-N-(4-(8-(2-chloro-6-methoxy-4-(2-oxopyrrolidin-1-yl)phenyl)indolizine-3-carbonyl)-2,6-difluorophenyl)-4-(((1r,4r)-4-methoxycyclohexyl)amino)but-2-enamide], the IC50 in the experiment on MIA PaCa-2 cells is 120 nM; in experiment [2], 61 nM. Further, the binding rate entry in experiment [1] was “A (A binding rate of 80% or more is rated “A”)”.

On to `COc1c(-c2cccn3c(C(=O)c4cc(F)c(NC(=O)/C=C/CNC(C)(C)C)c(F)c4)ccc23)c(C(F)(F)F)cc2c1nc(C)n2C` [Example 53, (E)-4-(tert-butylamino)-N-(2,6-difluoro-4-(8-(4-methoxy-1,2-dimethyl-6-(trifluoromethyl)-1H-benzo[d]imidazol-5-yl)indolizine-3-carbonyl)phenyl)but-2-enamide], for which the IC50 in the experiment on MIA PaCa-2 cells (Homo sapiens, MIA PaCa-2, 72 h) is 22 nM; in experiment [2], 40 nM. Moreover, the binding rate entry in experiment [1] is “A (A binding rate of 80% or more is rated “A”)”.

For `CCc1cc2c(nc(C)n2C)c(Cl)c1-c1cccn2c(C(=O)c3cc(F)c(NC(=O)/C=C/CNC(C)(C)C)c(F)c3)ccc12` [Example 16, (E)-4-(tert-butylamino)-N-(4-(8-(4-chloro-6-ethyl-1,2-dimethyl-1H-benzo[d]imidazol-5-yl)indolizine-3-carbonyl)-2,6-difluorophenyl)but-2-enamide], the IC50 with MIA PaCa-2 cells (Homo sapiens, MIA PaCa-2, 72 h) stood at 48 nM; in experiment [2], 64 nM. In experiment [1], the binding rate entry was “A (A binding rate of 80% or more is rated “A”)”.

For `CCc1nc2c(-c3c(C(F)(F)F)cc4c(nc(C)n4C)c3OC)cccn2c1C(=O)c1cc(F)c(NC(=O)/C=C/CN[C@H]2CC[C@H](OC)CC2)c(F)c1` (single isomer, unassigned) [Example 102-1, (E)-N-(4-(2-ethyl-8-(4-methoxy-1,2-dimethyl-6-(trifluoromethyl)-1H-benzo[d]imidazol-5-yl)imidazo[1,2-a]pyridine-3-carbonyl)-2,6-difluorophenyl)-4-(((1r,4r)-4-methoxycyclohexyl)amino)but-2-enamide], the IC50 in the experiment on MIA PaCa-2 cells turned out to be 20.1 nM; in experiment [2], 57.2 nM. The binding rate result in experiment [1] is “A (A binding rate of 80% or more is rated “A”)”.

Consider `C#Cc1cc2c(nc(C)n2C)c(Cl)c1-c1cccn2c(C(=O)c3cc(F)c(NC(=O)/C=C/CN[C@H]4CC[C@H](OC)CC4)c(F)c3)ccc12` [Example 43, (E)-N-(4-(8-(4-chloro-6-ethynyl-1,2-dimethyl-1H-benzo[d]imidazol-5-yl)indolizine-3-carbonyl)-2,6-difluorophenyl)-4-(((1r,4r)-4-methoxycyclohexyl)amino)but-2-enamide], for which the half-inhibitory concentration (IC50) with MIA PaCa-2 cells (Homo sapiens, MIA PaCa-2, 72 h) came to 160 nM; in experiment [2] it was 88 nM. Besides, in experiment [1], the binding rate result was “A (A binding rate of 80% or more is rated “A”)”.
